Experiments:
[1] = system: Lin-Sca+CD49fhigh cells (LSC cells); experiment: Freshly sorted LSC cells from PTENpc-/- mice: proliferation, prostatosphere formation, qPCR; format: cell-based, mouse; settings: Rac1 inhibitor EHT1864 (FIG. 3I)
Method: FIG. 3I. Freshly sorted Lin^−Sca^+CD49f^high cells (LSC cells) from PTEN^pc−/− mice were used to measure the effect of EHT1864, mcr84 or sunitinib on cell proliferation and prostatosphere formation.
FIG. 3J. Freshly sorted LSC cells from PTEN^pc−/− mice were treated with EHT1864 (20 μM) and expression of genes associated with stem cells and VEGF signaling was quantified by qPCR.
(§1) Cell-based assays: The chemosensitivity of prostate cancer cells was determined using a standard 3-(4,5-dimethylthiazol-2-yl)-2,5-diphenyltetrazolium bromide (MTT) cytotoxicity assay. The assay was performed 72 hours after treatment. FACS was used to isolate cells based on their surface expression of CD44, CD24, and the α6 and β4 integrins. The detailed procedure for isolating LSC cells from PTEN^pc−/− mice using lineage markers (CD31, CD45, and Ter119), Sca-1, and CD49f is described, e.g., in Mulholland, D. J., Xin, L., Morim, A., Lawson, D., Witte, O., and Wu, H. 2009. Lin−Sca−1+CD49fhigh stem/progenitors are tumor-initiating cells in the Pten-null prostate cancer model. Cancer Res 69:8555-8562; Lawson, D. A., Xin, L., Lukacs, R. U., Cheng, D., and Witte, O. N. 2007. Isolation and functional characterization of murine prostate stem cells. Proc Natl Acad Sci USA 104:181-186.

[2] = system: PC3 and C4-2 sensitive and resistant cells; experiment: Prostatosphere formation; format: cell-based; settings: resistant cells (PC3-R); EHT1864 20 μM
Method: FIG. 2B. Resistant and sensitive populations were analyzed for prostatosphere formation in the presence of either a NRP inhibitory peptide (c-furSEMA) or control peptide (c-SEMA).
FIG. 3H. PC3-R cells were stimulated with VEGF in the presence or absence of a Rac1 inhibitor (EHT1864; 20 μM) and the effect on prostatosphere formation was measured.
FIG. 6I. Prostatosphere formation by VEGF^high cells in the presence or absence of EHT1864 was quantified.

[3] = system: PTENpc-/- prostate tumors; experiment: Pten pc-/- transgenic mouse model of prostate cancer; format: in vivo; settings: for number of LSC cells: from 6 weeks of age
Method: FIG. 4C. Six-week old Pten^pc−/− mice were injected (i.p.) with either mcr84 (10 mg/kg) or EHT1864 (10 mg/kg) twice weekly for three weeks. The GU tract was harvested and total weight was measured. The prostate glands were separated and combined weight of all the lobes was measured. The prostate glands were digested and LSC cells (Lin^−Sca^+CD49f^high) were isolated by FACS.
FIG. 4D. Six-week old Pten^pc−/− mice were injected (i.p.) with either mcr84 (10 mg/kg) or EHT1864 (10 mg/kg) twice weekly for three weeks. The GU tract was harvested and total weight was measured. The prostate glands were separated and combined weight of all the lobes was measured.
FIG. 4E. Hematoxylin and eosin (H&E) staining of prostate tumors from Pten^pc−/− mice described in FIG. 4C, and the percentage of prostate glands showing either PIN or well-differentiated adenocarcinoma (AdCa). Scale bar is 100 μm.
FIG. 4F. TUNEL staining of tumor sections of prostate tumors from Pten^pc−/− mice described in FIG. 4C to detect apoptosis. Scale bar is 100 μm.
FIG. 7C. Six-week old Pten^pc−/− mice were injected (i.p.) with either mcr84 (10 mg/kg) twice weekly for three weeks. The prostate glands were harvested and immunostained using a myc antibody.
To pursue this hypothesis further, PTEN^pc−/− transgenic mice were treated with the Rac1 inhibitor (EHT1864), mcr84 or both at the start of puberty (6 weeks). […] We also compared the impact of mono- and combined therapy on PTEN^pc−/− tumors by calculating the weights of the isolated GU tracts and prostate lobes. […] Moreover, a mass of cells in the lumen of the gland was evident in mice that received the combined treatment. […] These tumor groups were also stained with CD31. Six-week old Ptenpc−/− mice were injected (i.p.) with either mcr84 (10 mg/kg) or EHT1864 (10 mg/kg) twice weekly for three weeks. The prostate glands were harvested and angiogenesis was analyzed using CD31 staining.

[4] = system: androgen-independent prostate cancer; settings: bevacizumab monotherapy; cited from earlier work
[5] = system: VEGFhigh and VEGFlow PC3 cells; experiment: Proliferation of VEGFhigh and VEGFlow cells; format: cell-based; settings: bevacizumab 1 mg/ml, sunitinib 20 μM, 72 hours
Method: FIG. 6E. VEGF^high and VEGF^low cells were incubated with bevacuzimab (1 mg/ml) or sunitinib (20 μM) for 72 hours and their proliferation was assayed.

[6] = system: human prostate tumor cells; experiment: Sensitivity to bevacizumab of subpopulations sorted from freshly harvested prostate tumors (cell survival); format: cell-based
Method: FIG. 1B. Four subpopulations isolated based on expression of CD44 and CD24 were analyzed for their sensitivity to bevacuzimab. The percentage of live cells in three different areas was determined and mean is plotted as cell survival.
FIG. 1C. Cells from two human freshly harvested prostate tumors were sorted using ITGA6 and ITGB4 antibodies. The four subpopulations isolated based on expression of ITGA6 and ITGB4 were analyzed for their ability to form prostatospheres and sensitivity to bevacuzimab. The percentage of live cells in three different areas was determined and mean is plotted as cell survival.
Isolation of human prostate tumor cells and laser capture microscopy (LCM): Human prostate tumor tissue was obtained from UMASS Cancer Center Tissue Bank in compliance with the Institutional Review Board of the University of Massachusetts Medical School. The discarded but freshly resected, prostate tumors were digested with collagenase at 37° C. and epithelial cells were isolated using an EpCaM antibody. Frozen sections were microdissected by laser capture microscopy (Arcturus PixCell 2) to obtain pure populations of tumor cells of defined Gleason grades. […] Quantitative real-time PCR was done using the Taqman assay kit (Applied Biosystems). […]

[7] = system: PC3 and C4-2 sensitive and resistant cells; experiment: Colony formation and MTT viability of sensitive and resistant cell lines; format: cell-based
Method: FIG. 1F. PC3 and C4-2 resistant and sensitive cell lines were analyzed for colony formation in the presence or absence of 10 μM Pazopanib.
FIG. 2C. Resistant and sensitive populations were analyzed for sensitivity to bevacuzimab (1 mg/ml) in the presence of either a NRP inhibitory peptide (c-furSEMA) or control peptide (c-SEMA).
FIG. 8F. PC3 and C4-2 resistant and sensitive cell lines were cultured in the presence of pazopanib (10 μM) or DMSO for 72 hours and cell viability is analyzed using the MTT assay.
FIG. 9D. PC3 and C4-2 resistant cells (10^3 cells per 60 mm plate) were cultured in the presence of either c-SEMA or c-furSEMA (1 μM), control IgG or NRP2 inhibitory antibody (1 μg/ml), or their respective controls for 10 days and colonies were stained with crystal violet. Colonies with more than 50 cells were counted.
as §1
The resistant cell lines generated are referred to as PC3-R and C4-2R. As controls, we also exposed these cell lines to control IgG (hIgG) and DMSO and refer to these as sensitive cell lines (PC3-S and C4-2S) (FIGS. 1D-1E).

NRP1 = NRP1 (Homo sapiens, UniProt O14786); experiment: Ability to block VEGF-A binding to NRP; settings: FIG. 9H
Description: FIG. 9H. Ability of VEGF antibodies to block VEGF-A binding to NRP.

PC3-R xenograft tumors = experiment: PC3-R xenografts in NSG mice; format: in vivo, mouse
Method: FIGS. 4A-4F. Rac1 inhibition improves sensitivity to VEGF/VEGFR-targeted therapy. FIG. 4A. Tumor volume of mice that were treated with either control IgG or bevacuzimab. PC3-R cells were transfected with Rac1 shRNAs and these cells were implanted in NSG mice. Once tumors reached approximately 100 mm^3 in volume, mice were treated with either control IgG or bevacuzimab (10 mg/kg, intraperitoneally, twice weekly). Tumor volume was measured every third day.
FIG. 4B. Terminal deoxynucleotidyl transferase dUTP nick end labeling (TUNEL) for control and treated PC3-R xenograft tumors that were harvested. Apoptosis was analyzed using TUNEL staining. Scale bar is 10 μm.

ERK = ERK activation by immunoblotting with phospho-specific antibody; format: cell-based
Method: FIG. 2D. PC3-S cells were serum-deprived overnight and stimulated with VEGF (50 ng/ml) for 30 minutes in the presence or absence of bevacuzimab (5 mg/ml). The activation of ERK was analyzed by immunoblotting using a phospho-specific antibody.
FIG. 2F. Sensitive and resistant C4-2 cell lines were serum-deprived overnight and stimulated with VEGF (50 ng/ml) for 30 minutes in the presence of bevacuzimab (5 mg/ml). The activation of ERK and AKT was analyzed by immunoblotting using phospho-specific antibodies.
FIG. 2G. Sensitive and resistant PC3 cell lines were serum-deprived overnight and stimulated with VEGF (50 ng/ml) for 30 minutes in the presence of bevacuzimab (5 mg/ml). The activation of ERK and AKT was analyzed by immunoblotting using phospho-specific antibodies.
FIG. 6F. VEGF^high and VEGF^low cells were serum-deprived overnight and stimulated with VEGF (50 ng/ml) for 30 minutes in the presence or absence of bevacuzimab (5 mg/ml). The activation of ERK was analyzed by immunoblotting using a phospho-specific antibody.

[8] = 10 mg/kg i.p. twice weekly for three weeks
[9] = Rac1-depleted (shRNA) PC3-R xenografts plus bevacizumab

## O=c1cc(CN2CCOCC2)occ1OCCCCCSc1ccnc2cc(C(F)(F)F)ccc12 [EHT1864]
[1]
  sensitivity of LSC cells to mcr84 and sunitinib: increased the sensitivity of LSC cells
[2]
  number of prostatospheres: reduced the number of prostatospheres
[3]; [8]
  angiogenesis (CD31 staining): No significant difference in staining
  number of LSC cells: reduced the number of LSC cells significantly
[3]; 10 mg/kg i.p. twice weekly for three weeks, listed as RACi
  number of LSC cells: significantly reduced
[3]; H&E staining
  pathological examination of prostate tumors (PIN or adenocarcinoma): progressed to well-differentiated adenocarcinomas

## bevacizumab
[4]
  patients exhibiting a decline in PSA: 27%
  response based on RECIST criteria: no response noted
[5]
  resistance of VEGFhigh cells compared to VEGFlow cells (proliferation): more resistant
[6]; CD44+CD24- (P1) subpopulation versus other subpopulations
  resistance to bevacizumab treatment (cell survival): the only subpopulation that exhibited resistance
[6]; high CD49f population compared to low CD49f population
  resistance to bevacizumab treatment (cell survival): exhibited resistance
[7]; PC3-R cells with P-Rex1 shRNA, bevacizumab 1 mg/ml, sunitinib 20 μM
  sensitivity of resistant cells after down-regulation of P-Rex1: increased their sensitivity
[7]; PC3-R cells, shRNA
  sensitivity to bevacizumab after down-regulation of NRP2 or NRP1: increased sensitivity
[7]; PC3-R, C4-2R, bevacizumab 1 mg/ml, sunitinib 20 μM, 10 days colonies, 72 hours MTT
  ability of the resistant cell lines to form colonies or survive: Neither bevacizumab nor sunitinib inhibited
[7]; sensitive cells
  resistance to inhibition of viability and prostatosphere formation after expression of constitutively active MEK: increased their resistance
[7]; sensitive cells, in the presence of VEGF
  resistance to bevacizumab after ectopic expression of NRP2: induces resistance
NRP1
  blocking of the binding of VEGF-A to NRP1: Neither mcr84 nor bevacizumab blocked
PC3-R xenograft tumors; [9]
  apoptosis in residual tumors (TUNEL): contained mostly apoptotic cells
  tumor volume: significantly better decrease in tumor volume
PC3-R xenograft tumors; control PC3-R xenografts, bevacizumab alone, 10 mg/kg i.p. twice weekly
  tumor growth: no significant effect on tumor growth
ERK; VEGFhigh cells
  basal ERK activation: resistant
ERK; VEGFlow cells
  VEGF-induced ERK activation: inhibited
ERK; resistant cells, bevacizumab 5 mg/ml
  ERK activation: unable to inhibit ERK activation

Reference: patent US11920135B2, “Methods of treating VEGF/VEGFR resistant prostate, renal, or colorectal cancers using combination therapies” (University of Massachusetts, priority 2016, dated 2024)
